{
  "source": "patent US20230174569A1",
  "about": "“PROCESS PER PREPARING (3a,5a)-20-OXOPREGNAN-3-YL GLYCYL-L-VALINATE HYDROCHLORIDE” ([…] S.R.L., priority 2021, published 2023)",
  "origin": "cited, not measured here",
  "key": {"[1]": {"details": "compared with Brexanolone"}, "[2]": {"details": "compared with Brexanolone", "remark": "listed apart in the source"}},
  "note": "Structures can show the parent of a compound that is named as a salt.",
  "data": [
    {"smiles": "CC(=O)[C@H]1CC[C@H]2[C@@H]3CC[C@H]4C[C@H](OC(=O)[C@@H](NC(=O)CN)C(C)C)CC[C@]4(C)[C@H]3CC[C@]12C", "note": "[compound I, (3α,5α)-20-oxopregnan-3-yl glycyl-L-valinate hydrochloride]", "values": [
      {"measurement": "water solubility", "setting": "[1]", "value": "better profile than Brexanolone"},
      {"measurement": "storage stability in aqueous solutions", "setting": "[2]", "value": "better profile than Brexanolone"}
    ]}
  ]
}
